Laboratory results published in patent US6410485B1, “Saccharin-5-carbonyl derivatives with herbicidal effect” (BASF Aktiengesellschaft, priority 1999, dated 2002).

Experiments:
Format in all cases: in vivo
[1] = system: Echinochloa crus galli (ECHCG); assay: greenhouse test, preemergence treatment, common barnyard grass; conditions: 100 = no emergence or complete destruction, 0 = no damage
Source text: (§1) It was possible to show the herbicidal action of the saccharin-5-carbonyl derivatives of the formula I by means of greenhouse tests: The cultivation containers used were plastic pots containing loamy sand with approximately 3.0% humus as a substrate. The seeds of the test plants were sown separately according to species. In the case of preemergence treatment, the active compounds suspended or emulsified in water were applied directly after sowing by means of finely dispersing nozzles. The containers were lightly watered in order to promote germination and growth, and then covered with transparent plastic hoods until the plants had taken root. This covering causes uniform germination of the test plants if this is not adversely affected by the active compounds. The application rate for preemergence treatment was 0.125 or 0.0625 kg/ha of a.s. The plants were kept species-specifically at temperatures of 10-25° C. or 20-35° C. The test period extended over 2 to 4 weeks. During this time, the plants were tended, and their reaction to the individual treatments was assessed. Assessment was carried out on a scale from 0 to 100. In this case, 100 means no emergence of the plants or complete destruction at least of the above-ground parts and 0 means no damage or a normal course of growth. The plants used in the greenhouse tests were made up of the following species: [table]

[2] = system: digitaria sanguinalis (DIGSA); assay: greenhouse test, preemergence treatment, large crabgrass; conditions: 100 = no emergence or complete destruction, 0 = no damage
Source text: as §1

[3] = system: weed grasses and broad-leaved plants; assay: greenhouse test, preemergence treatment, overall statement; conditions: 0.125 and 0.0625 kg/ha a.s.
Source text: as §1, with “[table]” left out

Setaria viridis (SETVI) = assay: greenhouse test, preemergence treatment, green foxtail; conditions: 100 = no emergence or complete destruction, 0 = no damage
Source text: as §1

[4] = system: Chenopodium album (CHEAL); assay: greenhouse test, preemergence treatment, lambsquarter; conditions: 100 = no emergence or complete destruction, 0 = no damage
Source text: as §1

Glycine max (GLXMA) = assay: greenhouse test, preemergence treatment, soybean; conditions: 100 = no emergence or complete destruction, 0 = no damage
Source text: as §1

SMILES: Cc1c(C(=O)C2=C(O)C3CCC(C3)C2=O)ccc2c1C(=O)N(C)S2(=O)=O (centres unmarked) [Compound 1.1]
- damage assessment on a scale from 0 to 100 (ECHCG) ([1]; 0.0625 kg/ha of a.s.): 98
- damage assessment on a scale from 0 to 100 (ECHCG) ([1]; 0.125 kg/ha of a.s.): 98
- damage assessment on a scale from 0 to 100 (DIGSA) ([2]; 0.0625 kg/ha of a.s.): 98
- damage assessment on a scale from 0 to 100 (DIGSA) ([2]; 0.125 kg/ha of a.s.): 98
- control of weed grasses and broad-leaved plants [3]: very well controlled
- damage assessment on a scale from 0 to 100 (SETVI) (Setaria viridis (SETVI); 0.0625 kg/ha of a.s.): 98
- damage assessment on a scale from 0 to 100 (SETVI) (Setaria viridis (SETVI); 0.125 kg/ha of a.s.): 100
- damage assessment on a scale from 0 to 100 (CHEAL) ([4]; 0.0625 kg/ha of a.s.): 98
- damage assessment on a scale from 0 to 100 (CHEAL) ([4]; 0.125 kg/ha of a.s.): 98
- damage assessment on a scale from 0 to 100 (GLXMA) (Glycine max (GLXMA); 0.0625 kg/ha of a.s.): 0
- damage assessment on a scale from 0 to 100 (GLXMA) (Glycine max (GLXMA); 0.125 kg/ha of a.s.): 0
